Test results published in ChEMBL document CHEMBL1201862, “PubChem BioAssay data set” (2004).
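How tested: cells in 96-well plates exposed to compound for 48 hours at five concentrations. Abbreviation: GI50, concentration required for 50% inhibition of growth.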 Active and inactive are the calls of the source. No stated cut-off is given here; in the data, active = GI50 up to about 1.1 µM and inactive = higher.

Legend:
Experiment in all cases: NCI tumour cell line growth inhibition, 48 h
786-0 = test system: 786-0
A498 = test system: A498
ACHN = test system: ACHN
BT-549 = test system: BT-549
CAKI-1 = test system: CAKI-1
CCRF-CEM = test system: CCRF-CEM
COLO 205 = test system: COLO 205
DU-145 = test system: DU-145
EKVX = test system: EKVX
HCC 2998 = test system: HCC 2998
HCT-116 = test system: HCT-116
HCT-15 = test system: HCT-15
HL-60 = test system: HL-60
HOP-62 = test system: HOP-62
HOP-92 = test system: HOP-92
HT-29 = test system: HT-29
Hs-578T = test system: Hs-578T
IGROV-1 = test system: IGROV-1
K562 = test system: K562
KM12 = test system: KM12
LOX IMVI = test system: LOX IMVI
M14 = test system: M14
MCF7 = test system: MCF7
MDA-MB-231 = test system: MDA-MB-231
MDA-MB-435 = test system: MDA-MB-435
MOLT-4 = test system: MOLT-4
NCI-H226 = test system: NCI-H226
NCI-H23 = test system: NCI-H23
NCI-H460 = test system: NCI-H460
NCI/ADR-RES = test system: NCI/ADR-RES
OVCAR-4 = test system: OVCAR-4
OVCAR-8 = test system: OVCAR-8
PC-3 = test system: PC-3
RPMI-8226 = test system: RPMI-8226
RXF 393 = test system: RXF 393
SF-268 = test system: SF-268
SF-295 = test system: SF-295
SF-539 = test system: SF-539
SK-MEL-28 = test system: SK-MEL-28
SK-MEL-2 = test system: SK-MEL-2
SK-MEL-5 = test system: SK-MEL-5
SK-OV-3 = test system: SK-OV-3
SNB-19 = test system: SNB-19
SNB-75 = test system: SNB-75
SR = test system: SR
SW-620 = test system: SW-620
T47D = test system: T47D
TK-10 = test system: TK-10
U-251 = test system: U-251
UACC-257 = test system: UACC-257
UACC-62 = test system: UACC-62
UO-31 = test system: UO-31
A549 = test system: A549
MDA-N = test system: MDA-N
Malme-3M = test system: Malme-3M
NCI-H522 = test system: NCI-H522
OVCAR-3 = test system: OVCAR-3
OVCAR-5 = test system: OVCAR-5
SN12C = test system: SN12C

Compound: NC(=O)N/N=C/c1ccccc1O
- GI50 (786-0): > 100 µM (inactive)
- GI50 (A498): > 100 µM (inactive)
- GI50 (ACHN): > 100 µM (inactive)
- GI50 (BT-549): > 100 µM (inactive)
- GI50 (CAKI-1): > 100 µM (inactive)
- GI50 (CCRF-CEM): > 100 µM (inactive)
- GI50 (COLO 205): > 100 µM (inactive)
- GI50 (DU-145): > 100 µM (inactive)
- GI50 (EKVX): 45 µM (inactive)
- GI50 (HCC 2998): > 100 µM (inactive)
- GI50 (HCT-116): > 100 µM (inactive)
- GI50 (HCT-15): > 100 µM
- GI50 (HL-60): 53.1 µM (inactive)
- GI50 (HOP-62): > 100 µM (inactive)
- GI50 (HOP-92): > 100 µM (inactive)
- GI50 (HT-29): > 100 µM (inactive)
- GI50 (Hs-578T): 53.6 µM (inactive)
- GI50 (IGROV-1): > 100 µM (inactive)
- GI50 (K562): > 100 µM (inactive)
- GI50 (KM12): > 100 µM (inactive)
- GI50 (LOX IMVI): > 100 µM (inactive)
- GI50 (M14): > 100 µM (inactive)
- GI50 (MCF7): > 100 µM (inactive)
- GI50 (MDA-MB-231): > 100 µM (inactive)
- GI50 (MDA-MB-435): > 100 µM (inactive)
- GI50 (MOLT-4): > 100 µM (inactive)
- GI50 (NCI-H226): > 100 µM (inactive)
- GI50 (NCI-H23): > 100 µM (inactive)
- GI50 (NCI-H460): > 100 µM (inactive)
- GI50 (NCI/ADR-RES): > 100 µM (inactive)
- GI50 (OVCAR-4): > 100 µM (inactive)
- GI50 (OVCAR-8): > 100 µM (inactive)
- GI50 (PC-3): > 100 µM (inactive)
- GI50 (RPMI-8226): > 100 µM (inactive)
- GI50 (RXF 393): > 100 µM (inactive)
- GI50 (SF-268): > 100 µM (inactive)
- GI50 (SF-295): > 100 µM (inactive)
- GI50 (SF-539): > 100 µM (inactive)
- GI50 (SK-MEL-28): > 100 µM (inactive)
- GI50 (SK-MEL-2): > 100 µM (inactive)
- GI50 (SK-MEL-5): > 100 µM (inactive)
- GI50 (SK-OV-3): > 100 µM (inactive)
- GI50 (SNB-19): > 100 µM (inactive)
- GI50 (SNB-75): > 100 µM (inactive)
- GI50 (SR): > 100 µM (inactive)
- GI50 (SW-620): > 100 µM (inactive)
- GI50 (T47D): > 100 µM (inactive)
- GI50 (TK-10): > 100 µM (inactive)
- GI50 (U-251): > 100 µM (inactive)
- GI50 (UACC-257): > 100 µM (inactive)
- GI50 (UACC-62): > 100 µM (inactive)
- GI50 (UO-31): > 100 µM (inactive)

Compound: Cc1ccc(Nc2sc(C)cc2C#N)c([N+](=O)[O-])c1
- GI50 (786-0): > 100 µM (inactive)
- GI50 (A498): > 100 µM (inactive)
- GI50 (A549): > 100 µM (inactive)
- GI50 (ACHN): > 100 µM (inactive)
- GI50 (BT-549): > 100 µM (inactive)
- GI50 (CAKI-1): > 100 µM (inactive)
- GI50 (CCRF-CEM): 99.8 µM (inactive)
- GI50 (COLO 205): > 100 µM (inactive)
- GI50 (DU-145): > 100 µM (inactive)
- GI50 (EKVX): > 100 µM (inactive)
- GI50 (HCC 2998): > 100 µM (inactive)
- GI50 (HCT-116): > 100 µM (inactive)
- GI50 (HCT-15): 67.3 µM
- GI50 (HOP-62): > 100 µM (inactive)
- GI50 (HOP-92): 88.9 µM (inactive)
- GI50 (K562): > 100 µM (inactive)
- GI50 (KM12): 93.5 µM (inactive)
- GI50 (M14): > 100 µM (inactive)
- GI50 (MCF7): > 100 µM (inactive)
- GI50 (MDA-MB-231): > 100 µM (inactive)
- GI50 (MDA-MB-435): > 100 µM (inactive)
- GI50 (MDA-N): > 100 µM (inactive)
- GI50 (MOLT-4): > 100 µM (inactive)
- GI50 (Malme-3M): > 100 µM (inactive)
- GI50 (NCI-H226): > 100 µM (inactive)
- GI50 (NCI-H23): > 100 µM (inactive)
- GI50 (NCI-H460): > 100 µM (inactive)
- GI50 (NCI-H522): > 100 µM (inactive)
- GI50 (NCI/ADR-RES): 98.9 µM (inactive)
- GI50 (OVCAR-3): > 100 µM (inactive)
- GI50 (OVCAR-4): > 100 µM (inactive)
- GI50 (OVCAR-5): > 100 µM (inactive)
- GI50 (OVCAR-8): > 100 µM (inactive)
- GI50 (PC-3): > 100 µM (inactive)
- GI50 (RPMI-8226): > 100 µM (inactive)
- GI50 (RXF 393): 53.3 µM (inactive)
- GI50 (SF-268): > 100 µM (inactive)
- GI50 (SF-295): > 100 µM (inactive)
- GI50 (SF-539): > 100 µM (inactive)
- GI50 (SK-MEL-28): > 100 µM (inactive)
- GI50 (SK-OV-3): > 100 µM (inactive)
- GI50 (SN12C): > 100 µM (inactive)
- GI50 (SNB-19): > 100 µM (inactive)
- GI50 (SNB-75): > 100 µM (inactive)
- GI50 (SR): > 100 µM (inactive)
- GI50 (SW-620): > 100 µM (inactive)
- GI50 (T47D): > 100 µM (inactive)
- GI50 (U-251): > 100 µM (inactive)
- GI50 (UACC-257): > 100 µM (inactive)
- GI50 (UACC-62): > 100 µM (inactive)
- GI50 (UO-31): > 100 µM (inactive)

Compound: CC1(C)OCC2(CO1)CSCCCSCC1(COC(C)(C)OC1)CSCCCSC2
- GI50 (786-0): > 100 µM (inactive)
- GI50 (A549): > 100 µM (inactive)
- GI50 (BT-549): > 100 µM (inactive)
- GI50 (CCRF-CEM): > 100 µM (inactive)
- GI50 (COLO 205): > 100 µM (inactive)
- GI50 (DU-145): > 100 µM (inactive)
- GI50 (EKVX): > 100 µM (inactive)
- GI50 (HCC 2998): > 100 µM (inactive)
- GI50 (HCT-116): > 100 µM (inactive)
- GI50 (HCT-15): > 100 µM
- GI50 (HL-60): > 100 µM (inactive)
- GI50 (HOP-62): > 100 µM (inactive)
- GI50 (HOP-92): > 100 µM (inactive)
- GI50 (HT-29): > 100 µM (inactive)
- GI50 (IGROV-1): > 100 µM (inactive)
- GI50 (K562): > 100 µM (inactive)
- GI50 (KM12): > 100 µM (inactive)
- GI50 (LOX IMVI): > 100 µM (inactive)
- GI50 (M14): > 100 µM (inactive)
- GI50 (MCF7): > 10 µM (inactive)
- GI50 (MDA-MB-231): > 100 µM (inactive)
- GI50 (MDA-MB-435): > 100 µM (inactive)
- GI50 (MDA-N): > 100 µM (inactive)
- GI50 (MOLT-4): > 100 µM (inactive)
- GI50 (NCI-H23): > 100 µM (inactive)
- GI50 (NCI-H460): > 100 µM (inactive)
- GI50 (NCI-H522): > 100 µM (inactive)
- GI50 (NCI/ADR-RES): > 100 µM (inactive)
- GI50 (OVCAR-3): > 100 µM (inactive)
- GI50 (OVCAR-4): > 100 µM (inactive)
- GI50 (OVCAR-5): > 100 µM (inactive)
- GI50 (OVCAR-8): > 100 µM (inactive)
- GI50 (PC-3): > 100 µM (inactive)
- GI50 (RPMI-8226): > 100 µM (inactive)
- GI50 (SF-268): > 100 µM (inactive)
- GI50 (SF-295): > 100 µM (inactive)
- GI50 (SF-539): > 100 µM (inactive)
- GI50 (SK-MEL-28): > 100 µM (inactive)
- GI50 (SK-MEL-5): > 100 µM (inactive)
- GI50 (SK-OV-3): > 100 µM (inactive)
- GI50 (SN12C): > 100 µM (inactive)
- GI50 (SNB-19): > 100 µM (inactive)
- GI50 (SNB-75): 90.6 µM (inactive)
- GI50 (SR): > 100 µM (inactive)
- GI50 (SW-620): > 100 µM (inactive)
- GI50 (T47D): > 100 µM (inactive)
- GI50 (TK-10): > 100 µM (inactive)
- GI50 (U-251): > 100 µM (inactive)
- GI50 (UACC-257): > 100 µM (inactive)
- GI50 (UACC-62): > 100 µM (inactive)
- GI50 (UO-31): > 100 µM (inactive)
